Reference: US20090170899A1, “Stimulators of 5-HT4 receptors and uses thereof” (priority 2004, published 2009)

Tested on: BrdU-positive cells in the sub-granular zone (SGZ) of the hippocampus
Test: Hippocampal neurogenesis (BrdU-positive cells) after 3-day treatment
Type: in vivo, rat
Settings: RS 67333 1.5 mg/kg/day, 3 days
Description: A and B: Photomicrographs (magnification: 10× and 100× for the small rectangles) representative of the control and RS 67333 group, respectively. Clusters of positive cells were found in the presence of RS 67333 (small rectangles). RS 67333 was administered through the use of osmotic minipumps, inserted subcutaneously in the region of the back. Rats received intraperitoneal injections of BrdU at the dose of 50 mg/kg twice daily (8 h interval), starting from the day of minipump insertion until day 2 post-surgery.
Drugs and Chemicals. The following compounds were used: GR 125487 sulphamate, prucalopride monohydrochloride, citalopram hydrobromide (gifts from Glaxo, Janssen and Lundbeck laboratories, respectively), RS 67333 hydrochloride (Tocris Cookson Inc., Ellisville, Mo., USA), WAY 100635 hydrochloride (Research Biochemicals, Natick, Mass., USA), pCPA methyl ester hydrochloride, BrdU (Sigma-Aldrich Canada, Oakville, Ontario, Canada). All compounds were diluted in distilled water. All drug dosages refer to the free base. For chronic treatments, prucalopride (2.5 mg/kg/day), RS 67333 (1.5 mg/kg/day) or the vehicle were delivered through osmotic minipumps (Alza, Palo Alto, Calif., USA), inserted subcutaneously in the region of the back under short-duration (≦5 min) halothane anesthesia. […]

CCCCN1CCC(CCC(=O)c2cc(Cl)c(N)cc2OC)CC1 [RS 67333, 1-(4-amino-5-chloro-2-methoxyphenyl)-3-(1-n-burtl-4-piperidinyl)-1-propanone]
size of clusters of BrdU-positive cells: 6 to 10 clones | density of BrdU-positive cells in the SGZ (control 44.9±17.2): 200.2±44.9 per mm^2
